Legend:
[1] = system: p27; assay: Western blotting, p27 in AsPC-1 cells; assay type: cell-based, human; conditions: 4 μg/mL (FIG. 5)
Description: (§1) Western blotting. Cells were seeded into flasks and cultured to 50% to 60% confluence for 24 hours. Cells were then placed in serum-free medium with or without 4 μg/mL frondoside A for periods of 0, 24, 48 and 72 hours respectively. Proteins were extracted from attached and floating cells in lysis buffer containing 4% SDS. Protein concentrations were determined using the bicinchoninic acid assay with BSA as standard. Western blotting was carried out. In brief, equal amounts of protein in the cell lysates were separated on 15% SDS-PAGE and the proteins were transferred onto nitrocellulose membranes. After blocking non-specific sites with dried milk, membranes were incubated with the appropriate dilution of primary antibody. Membranes were then incubated with a horseradish peroxidase conjugated secondary antibody. Proteins were detected using an enhanced chemiluminescence detection system.

[2] = system: PC-3 (human prostate adenocarcinoma); assay: cells; conditions: for Percent Growth (Mean ± SEM, n = 2): 72-hour
Description: Test Substance and Concentration. Frondoside A (FAS) was dissolved in 100% DMSO and then diluted with sterile distilled water to obtain initial working solutions of 1000, 300, 100, 30, and 10 μM in 40% DMSO. […]
Cell Line and Culture Media. The tumor cell line PC-3 (human prostate adenocarcinoma), obtained from American Type Culture Collection (ATCC CRL-1435), was incubated in air atmosphere of 5% CO2 at 37° C. The culture medium used was F-12K Nutrient Mixture (Kaighn's Modification) with 3% fetal bovine serum, which was supplemented with 1% Antibiotic-Antimycotic.
Evaluation of anti-proliferation for test substances. Aliquots of 100 μl of cell suspension (about 2.5×10^3 cells/well) were placed in 96-well microtiter plates in an atmosphere of 5% CO2 at 37° C. […] Thus, the final concentration of DMSO was 0.4%. The Frondoside A was evaluated for possible inhibitory effects on cell proliferation at concentrations of 10, 3, 1, 0.3 and 0.1 μM. At the end of incubation, 20 μl of 90% alamarBlue reagent was added to each well for another 6-hour incubation before detection of cell viability by fluorescent intensity. Fluorescent intensity was measured using a Spectrafluor Plus plate reader with excitation at 530 nm and emission at 590 nm.
Determination of IC50, TGI and LC50. The measured results was calculated by the following formula: PG(%)=100%×(Mean Ftest−Mean Ftime0)/(Mean Fctrl−Mean Ftime0) If (Mean Ftest−Mean Ftime0)<0, then PG (%)=100%×(Mean Ftest−Mean Ftime0)/(Mean Ftime0−Mean Fblank) Where: • PG: percent growth • Mean Ftime0=The average of 2 measured fluorescent intensities of reduced alamarBlue at the time just before exposure of cells to the test substance. • Mean Ftest=The average of 2 measured fluorescent intensities of alamarBlue after 72-hour exposure of cells to the test substance. • Mean Fctrl=The average of 2 measured fluorescent intensities of alamarBlue after 72-hour incubation without the test substance. • Mean Fblank=The average of 2 measured fluorescent intensities of alamarBlue in medium without cells after 72-hour incubation.

[3] = system: AsPC-1 cells; assay: Cell proliferation by cell counting; assay type: cell-based, human; conditions: 4 μg/mL
Description: (§2) Cell culture. The poorly differentiated human pancreatic cancer line AsPC-1 was purchased from the American Type Culture Collection (ATCC, Manassas, Va., USA). Cells were cultured in MEM medium supplemented with penicillin G (100 U/mL), streptomycin (100 U/mL) and 10% FBS at 37° C. in humidified air with 5% CO2. Cells were harvested by incubation in trypsin-EDTA solution for 10–15 minutes. Cells were then centrifuged at 300×g for 5 minutes and cell pellets were suspended in fresh culture medium prior to seeding into culture flasks or plates.
Cell proliferation assay. Cell growth was analyzed by ^3H-methyl thymidine incorporation and cell counting. Following treatment of pancreatic cancer cells with a series of concentrations of frondoside A from 1 μg/mL to 16 μg/mL, cellular DNA synthesis was assayed by adding ^3H-methyl thymidine at 0.5 μLCi/well. After 2 hours incubation, the cells were washed twice with PBS, precipitated with 10% TCA for two hours, and solubilized from each well with 0.5 ml of 0.4 N NaOH. Incorporation of ^3H-methyl thymidine into DNA was measured by adding scintillation liquid and counting in a scintillation counter (LKB BackBeta, Wallac, Turku, Finland). […] The cells were counted using Z1-Coulter Counter (Luton, UK).

[4] = system: caspase 7; assay: Western blotting, caspase 7 in AsPC-1 cells; assay type: cell-based, human; conditions: 4 μg/mL, time-dependent (FIG. 3)
Description: as §1

[5] = system: AsPC-1 cells; assay: 3H-methyl thymidine incorporation (cell proliferation assay); assay type: cell-based, human
Description: as §2
Cell proliferation assay. Cell growth was analyzed by ^3H-methyl thymidine incorporation and cell counting. Following treatment of pancreatic cancer cells with a series of concentrations of frondoside A from 1 μg/mL to 16 μg/mL, cellular DNA synthesis was assayed by adding ^3H-methyl thymidine at 0.5 μLCi/well. After 2 hours incubation, the cells were washed twice with PBS, precipitated with 10% TCA for two hours, and solubilized from each well with 0.5 ml of 0.4 N NaOH. Incorporation of ^3H-methyl thymidine into DNA was measured by adding scintillation liquid and counting in a scintillation counter (LKB BackBeta, Wallac, Turku, Finland). For cell counting, cells were seeded in 12 wells plates and cultured with serum-free medium for 24 hours prior to frondoside A treatment and then switched to serum-free medium with or without 4 μg/mL frondoside A for the respective treatment time points (24, 48 and 72 hours). The cells were removed from the plate by trypsinization to produce a single cell suspension for cell counting. The cells were counted using Z1-Coulter Counter (Luton, UK).

COC1C(O)C(CO)OC(OC2C(O)COC(OC3C(C)OC(OC4C(OC5CCC6(C)C7CCC89C(=O)OC(C)(CCCC(C)C)C8C(OC(C)=O)CC9(C)C7=CCC6C5(C)C)OCC(OS(=O)(=O)[O-])C4O)C(OC4OCC(O)C(O)C4O)C3O)C2O)C1O.[Na+] [Frondoside A, 3-O-methyl-β-D-glucopyranosyl-(1→3)-β-D-xylopyranosyl-(1→4)-[β-D-xylopyranosyl-(1→2)]-β-D-quinovopyranosyl-(1→2)-4-O-sodium sulfate-β-D-xylopyranosyl-3-O-holost-7(8)-en-3β-ol-16β-O-acetate]
expression of p27 [1]: not changed | Percent Growth (Mean ± SEM, n = 2) ([2]; PC-3, 0.1 μM): 98 ± 3% | Percent Growth (Mean ± SEM, n = 2) ([2]; PC-3, 0.3 μM): 103 ± 1% | Percent Growth (Mean ± SEM, n = 2) ([2]; PC-3, 1 μM): 98 ± 3% | Percent Growth (Mean ± SEM, n = 2) ([2]; PC-3, 3 μM): −98 ± 1% | Percent Growth (Mean ± SEM, n = 2) ([2]; PC-3, 10 μM): −97 ± 1% | TGI (Total Growth Inhibition) ([2]; PC-3, semi-quantitative, nonlinear regression): 1700 nM | growth inhibition of PC-3 relative to the vehicle treated control group ([2]; between 1 and 10 μM): significant growth inhibition | IC50 ([2]; read-out: IC50 (50% Inhibition Concentration), PC-3, semi-quantitative, nonlinear regression): 1500 nM | CC50 ([2]; read-out: LC50 (50% Lethal Concentration), PC-3, semi-quantitative, nonlinear regression): 2000 nM | cell number compared to control ([3]; 48 and 72 hours): marked and progressive decrease in cell number | cell number compared to control ([3]; first 24 hours): no obviously effect | activation of caspase 7 [4]: reduction in the amounts of the respective procaspase forms | reduction of incorporation of 3H-methyl thymidine into DNA ([5]; 4 μg/mL, within 24 hours): approximately 50% | inhibition of thymidine incorporation ([5]; AsPC-1 cells, 1 μg/mL to 16 μg/mL, concentration-dependent (FIG. 1)): marked inhibition of thymidine incorporation | concentrations causing cytotoxicity (cell necrosis) ([5]; immediate necrosis of cells): higher than 16 μg/mL
